The text below walks through data of ChEMBL document CHEMBL1144985, “Rational design, synthesis and structure-activity relationships of a cyclic succinate series of TNF-alpha converting enzyme inhibitors. Part 2: lead optimization” (Bioorg Med Chem Lett, 2003).

Values after ≈ are worked out from the molar mass of the structure shown.

Series [1] addresses Disintegrin and metalloproteinase domain-containing protein 17 (Sus scrofa, UniProt O77636). Description: In vitro binding affinity against porcine TACE.
Series [2] concerns the target T1, Interstitial collagenase (Homo sapiens, UniProt P03956).
T1 sequence (P03956 whole entry): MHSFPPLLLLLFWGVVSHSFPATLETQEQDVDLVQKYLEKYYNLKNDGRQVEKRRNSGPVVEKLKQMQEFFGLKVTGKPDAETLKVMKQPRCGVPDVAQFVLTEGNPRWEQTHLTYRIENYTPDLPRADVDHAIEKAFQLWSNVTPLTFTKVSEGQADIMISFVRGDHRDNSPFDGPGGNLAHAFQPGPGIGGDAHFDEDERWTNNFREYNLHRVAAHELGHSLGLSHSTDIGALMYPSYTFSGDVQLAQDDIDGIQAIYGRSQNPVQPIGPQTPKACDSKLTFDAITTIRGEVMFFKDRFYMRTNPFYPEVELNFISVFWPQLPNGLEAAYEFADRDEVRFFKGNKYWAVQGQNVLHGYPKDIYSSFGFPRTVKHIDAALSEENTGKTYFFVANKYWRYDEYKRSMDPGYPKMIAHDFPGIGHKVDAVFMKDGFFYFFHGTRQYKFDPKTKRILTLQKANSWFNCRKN
Kind of series: Inhibitory activity against matrix metalloprotease-1 (MMP-1).

Series [3] has as its target 72 kDa type IV collagenase (Homo sapiens, UniProt P08253). Kind of series: Inhibitory activity against matrix metalloprotease-2 (MMP-2).
The subject of series [4] is Caco-2. The settings on record: Homo sapiens.
Description: Caco-2 permeability was determined
Series [5] in a line: Solubility was determined.
The target of series [6] is Matrix metalloproteinase-9 (Homo sapiens, UniProt P14780). Kind of series: Inhibitory activity against matrix metalloprotease-9 (MMP-9).
Sequence of Matrix metalloproteinase-9 (P14780 whole entry): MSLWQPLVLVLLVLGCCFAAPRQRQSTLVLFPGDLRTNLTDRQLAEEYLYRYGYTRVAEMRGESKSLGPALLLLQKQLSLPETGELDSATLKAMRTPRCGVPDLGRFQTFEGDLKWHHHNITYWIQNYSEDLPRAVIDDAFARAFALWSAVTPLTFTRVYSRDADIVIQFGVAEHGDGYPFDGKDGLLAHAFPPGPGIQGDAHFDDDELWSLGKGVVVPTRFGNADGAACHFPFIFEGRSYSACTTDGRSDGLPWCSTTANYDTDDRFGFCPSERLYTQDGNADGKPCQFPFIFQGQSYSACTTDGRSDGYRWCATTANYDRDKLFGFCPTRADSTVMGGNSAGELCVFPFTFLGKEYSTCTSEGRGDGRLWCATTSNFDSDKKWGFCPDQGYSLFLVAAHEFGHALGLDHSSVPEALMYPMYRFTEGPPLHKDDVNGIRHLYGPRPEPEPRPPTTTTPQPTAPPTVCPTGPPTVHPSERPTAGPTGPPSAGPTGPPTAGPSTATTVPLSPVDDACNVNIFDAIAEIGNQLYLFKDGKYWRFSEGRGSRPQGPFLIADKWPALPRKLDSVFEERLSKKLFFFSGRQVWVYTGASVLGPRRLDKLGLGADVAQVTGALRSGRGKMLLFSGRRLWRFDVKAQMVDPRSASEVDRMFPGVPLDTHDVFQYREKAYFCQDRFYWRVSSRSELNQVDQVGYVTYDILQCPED
The species entered for series [7] is Homo sapiens. Description: In vitro inhibition of TNF-alpha production was determined by using LPS-stimulated human whole blood assay (WBA). The format is functional.

Sequence of Disintegrin and metalloproteinase domain-containing protein 17 (O77636 whole entry, the tested form may be a part): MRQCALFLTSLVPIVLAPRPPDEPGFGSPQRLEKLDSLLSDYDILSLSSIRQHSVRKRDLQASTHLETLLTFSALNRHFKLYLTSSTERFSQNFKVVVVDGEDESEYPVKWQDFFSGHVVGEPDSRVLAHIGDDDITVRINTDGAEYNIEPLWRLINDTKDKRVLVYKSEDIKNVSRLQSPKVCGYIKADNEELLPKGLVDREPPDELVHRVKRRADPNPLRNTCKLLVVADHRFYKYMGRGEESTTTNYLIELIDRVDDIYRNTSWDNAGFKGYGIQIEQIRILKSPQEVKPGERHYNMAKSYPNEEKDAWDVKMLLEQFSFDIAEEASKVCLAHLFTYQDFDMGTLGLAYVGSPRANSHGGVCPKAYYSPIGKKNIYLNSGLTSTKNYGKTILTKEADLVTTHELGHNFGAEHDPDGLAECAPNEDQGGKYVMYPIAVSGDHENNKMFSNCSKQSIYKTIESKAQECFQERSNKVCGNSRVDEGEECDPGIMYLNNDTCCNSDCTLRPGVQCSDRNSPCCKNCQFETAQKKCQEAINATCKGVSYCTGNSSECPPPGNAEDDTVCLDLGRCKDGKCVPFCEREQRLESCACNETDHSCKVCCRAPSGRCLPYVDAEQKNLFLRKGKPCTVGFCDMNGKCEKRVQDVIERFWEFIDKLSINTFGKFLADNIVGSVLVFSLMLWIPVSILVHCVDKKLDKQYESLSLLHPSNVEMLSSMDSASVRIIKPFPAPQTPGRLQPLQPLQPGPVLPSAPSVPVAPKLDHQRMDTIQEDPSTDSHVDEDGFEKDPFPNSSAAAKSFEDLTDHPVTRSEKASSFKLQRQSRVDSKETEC
Sequence of 72 kDa type IV collagenase (P08253 whole entry): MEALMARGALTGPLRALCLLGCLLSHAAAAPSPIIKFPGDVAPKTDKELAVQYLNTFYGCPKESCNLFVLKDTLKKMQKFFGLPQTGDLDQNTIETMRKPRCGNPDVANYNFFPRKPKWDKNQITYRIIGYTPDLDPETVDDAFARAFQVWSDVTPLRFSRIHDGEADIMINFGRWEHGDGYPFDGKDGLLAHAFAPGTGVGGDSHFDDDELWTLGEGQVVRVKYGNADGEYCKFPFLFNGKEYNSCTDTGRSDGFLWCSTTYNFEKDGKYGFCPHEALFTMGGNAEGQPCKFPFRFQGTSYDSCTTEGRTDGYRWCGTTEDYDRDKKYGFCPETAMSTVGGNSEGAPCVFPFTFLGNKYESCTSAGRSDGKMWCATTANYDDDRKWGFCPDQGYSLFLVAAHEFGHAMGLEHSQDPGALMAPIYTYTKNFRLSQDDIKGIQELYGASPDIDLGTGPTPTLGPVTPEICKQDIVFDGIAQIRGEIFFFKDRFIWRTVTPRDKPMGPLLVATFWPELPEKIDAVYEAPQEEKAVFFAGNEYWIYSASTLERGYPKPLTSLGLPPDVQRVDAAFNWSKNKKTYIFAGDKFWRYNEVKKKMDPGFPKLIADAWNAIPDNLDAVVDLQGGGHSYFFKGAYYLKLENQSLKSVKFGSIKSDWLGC

As for `Cc1cc(COc2ccc(NC(=O)[C@H]3CN(C(=O)c4ccco4)CC[C@@H]3C(=O)NO)cc2)c2ccccc2n1`, the IC50 in series [1] was under 0.3 nM; in series [7] it was 1300 nM. Also, the results for the Ki in series [2], in series [3] and in series [6] were over 4950 nM, over 3330 nM and over 2130 nM, respectively. The Papp in series [4] is 0.2 10e-6 cm s-1. The molecule also registered a solubility in series [5] of under 100 µg/mL.

`Cc1cc(COc2ccc(NC(=O)[C@H]3CCN(C(=O)c4ccco4)C[C@@H]3C(=O)NO)cc2)c2ccccc2n1`: the IC50 in series [1] stood at 0.066 nM; in series [7] it was 170 nM. The results for the inhibitory constant (Ki) in series [2], in series [3] and in series [6] were over 4950 nM, over 1010 nM and over 465 nM, respectively. Moreover, the Papp in series [4] was 0.1 10e-6 cm s-1. Also, the concentration in solution in series [5] (solubility) came to 10 µg/mL (≈ 18.9 µM).

With `Cc1cc(COc2ccc(NC(=O)[C@H]3CCN(C(=O)C(C)C)C[C@@H]3C(=O)NO)cc2)c2ccccc2n1`, the IC50 in series [1] was 0.22 nM; in series [7] it was 270 nM. For the same molecule, the Ki in series [2] was over 4950 nM; in series [3], over 3330 nM; in series [6], over 2130 nM. The apparent permeability coefficient (Papp) in series [4] was 0.3 10e-6 cm s-1. For the same molecule, the solubility in series [5] was 30 µg/mL (≈ 59.5 µM).

For orientation: IC50 means the point on the concentration scale where inhibition reaches its midpoint. Read a high IC50 as a need for much substance. One may read the Ki as a measure of affinity in units of concentration, obtained from inhibition or displacement. High values mean lower affinity, low ones higher affinity. In general, Papp refers to a coefficient for how fast a substance crosses the barrier. One may read the solubility as the concentration that dissolves in the medium under given conditions. A lower solubility goes with a poorly soluble substance.
